# According to patent US20090023646A1, “GHRH analogues” (Centre Hospitalier de L'Universite de Montreal (CHUM), priority 2002, published 2009):
# Square brackets hold non-standard residues; d marks the D form. Ends that are not written are not given here. Peptide text beside a SMILES is read from it.
# How the values were obtained:
# [1] = biological target: T1, human GHRH receptor (Homo sapiens, UniProt Q02643); experiment: Competitive 125I-GHRH binding assay in BHK cell membrane preparations expressing the human GHRH receptor; settings: ratio IC50 of hGHRH(1-29)-NH2/IC50 analogue, mean±SEM
# T1 construct: expressed in transfected cells; host or cells: BHK (baby hamster kidney) 570 cells
# T1 sequence (Q02643 23-423): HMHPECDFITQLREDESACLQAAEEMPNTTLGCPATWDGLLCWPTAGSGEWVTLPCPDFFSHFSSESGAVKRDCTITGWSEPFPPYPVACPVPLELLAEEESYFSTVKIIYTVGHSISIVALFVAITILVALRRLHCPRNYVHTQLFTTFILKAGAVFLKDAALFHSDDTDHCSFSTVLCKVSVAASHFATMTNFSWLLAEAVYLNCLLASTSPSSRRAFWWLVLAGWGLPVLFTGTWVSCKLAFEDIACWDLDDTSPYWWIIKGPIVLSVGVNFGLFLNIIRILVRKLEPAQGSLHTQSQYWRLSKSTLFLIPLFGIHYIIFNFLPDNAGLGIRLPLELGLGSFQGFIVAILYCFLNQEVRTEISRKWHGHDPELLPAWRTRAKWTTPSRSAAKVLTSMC
# Experimental: Non specific binding was determined in presence of 1 μM hGHRH(1-29)NH2. Incubation was carried out at equilibrium (23° C., 60 min) and stopped by centrifugation (12,000 g, 5 min, at 4° C.). The radioactivity content in pellets was determined by gamma counting. The affinity of hGHRH(1-29) NH2 was tested in each experiment to assess the validity of the assay and determine the relative affinity of the analogues.
# Values represent the mean±SEM of 3 experiments performed in triplicate for the analogues and the mean±SEM of 2 experiments performed in triplicate for hGHRH(1-44) NH2.
# For the binding assay results presented in Tables 8 to 11, values represent the mean±SEM of 8 independent experiments performed in triplicate for the analogues and the mean±SEM of 4 experiments performed in triplicate for hGHRH(1-29)NH2. […] The relative affinity was obtained by taking the ratio IC50 of hGHRH (1-29)-NH2/IC50 analogue.
# [2] = In vitro proteolysis assay in rat serum; type: in vitro ADME; settings: mean±SEM; for Residual concentration: incubation 0 min; for remaining at 8 min, 15 µM / remaining at 0.25 h, 15 µM / remaining at 0.5 h, 15 µM / remaining at 1 h, 15 µM: male, Sprague Dawley, read-out: Residual concentration; for remaining at 8 min, 15 µM: diluted 1/100, incubation 8 min; for remaining at 0.25 h, 15 µM: diluted 1/100, incubation 15 min; for remaining at 0.5 h, 15 µM: diluted 1/100, incubation 30 min; for remaining at 1 h, 15 µM: diluted 1/100, incubation 60 min
# Experimental: Proteolysis was stopped by adding 800 μl of ice-cold stop buffer (potassium-phosphate buffer, acidified to pH 0.8 with trifluoroacetic acid (TFA) and boiling 5 min (rat serum only). After centrifugation (12000 g, 5 min, 4° C.) (rat serum only), serum-peptide mixtures were passed through a conditioned Sep-Pak C-18 cartridge to extract native GHRH or a GHRH analogue residual concentrations from serum proteins. The native GHRH or the analogue was eluted in 2 ml of 50% acetonitrile-0.01% TFA/50% 0.01% aqueous TFA. Two hundred μl of extracted peptide, representing 1 μg of GHRH or analogue at time 0, was quantified by analytical HPLC, using one μ-Bondapak C18 column (10 μm particle size, 0.39×15 cm) (rat serum) or two C18 column in series (human serum and plasma) and a binary solvent system composed of NaClO4 0.01 M, pH 2.5 and acetonitrile. A linear gradient from 30 to 60% acetonitrile over 45 min (rat serum) or 30 to 50% (human serum and plasma) was used.
# [3] = In vitro proteolysis assay in human serum; type: in vitro ADME; settings: human serum
# Experimental: (§1) Ten μl of a 300 M solution of hGHRH (1-29)NH2 or of a GHRH analogue was solubilized in dimethylsulfoxide (DMSO) and incubated in one of the following conditions: a—190 μl serum (1/100 dilution in picopure water) from 2-month-old male Sprague Dawley rats, at 37° C. for 0, 8, 15, 30 or 60 min, in polypropylene tubes; b—190 μl of human healthy volunteer plasma (from Human Whole Blood Na EDTA, males, drug free (Algorithme Pharma Inc.); project: MTL-P2-155; Lot: MTLP2155-01, supplied by LAB Dev Int); and c—190 μl of human healthy volunteer pooled serum, Lot: X409 (supplied by LAB Dev Int), at 37° C. for 0, 60, 120, 180 or 420 min, in polypropylene tubes. Proteolysis was stopped by adding 800 μl of ice-cold stop buffer (potassium-phosphate buffer, acidified to pH 0.8 with trifluoroacetic acid (TFA) and boiling 5 min (rat serum only). After centrifugation (12000 g, 5 min, 4° C.) (rat serum only), serum-peptide mixtures were passed through a conditioned Sep-Pak C-18 cartridge to extract native GHRH or a GHRH analogue residual concentrations from serum proteins. The native GHRH or the analogue was eluted in 2 ml of 50% acetonitrile-0.01% TFA/50% 0.01% aqueous TFA. Two hundred μl of extracted peptide, representing 1 μg of GHRH or analogue at time 0, was quantified by analytical HPLC, using one μ-Bondapak C18 column (10 μm particle size, 0.39×15 cm) (rat serum) or two C18 column in series (human serum and plasma) and a binary solvent system composed of NaClO4 0.01 M, pH 2.5 and acetonitrile. A linear gradient from 30 to 60% acetonitrile over 45 min (rat serum) or 30 to 50% (human serum and plasma) was used.
# (§2) More specifically, the values represent the mean, standard deviation and standard error from the mean of 3 to 7 experiments.
# [4] = in vitro; settings: male, human, plasma, Mean residual amount
# Experimental: as §1, §2
Relative binding affinity (R1) in comparison with hGHRH(1-29)NH2 in BHK cells expressing the hGHRH receptor [1],Residual concentration [2],"remaining at 8 min, 15 µM [2] [%]","remaining at 0.25 h, 15 µM [2] [%]","remaining at 0.5 h, 15 µM [2] [%]","remaining at 1 h, 15 µM [2] [%]",Mean residual amount ([3]; incubation time 0 min) [%],Mean residual amount ([3]; incubation time 420 min),"remaining at 1 h, 15 µM ([3]; human, pooled human serum, incubation time 60 min, read-out: Mean residual amount) [%]","remaining at 2 h, 15 µM ([3]; human, pooled human serum, incubation time 120 min, read-out: Mean residual amount) [%]","remaining at 3 h, 15 µM ([3]; human, pooled human serum, incubation time 180 min, read-out: Mean residual amount) [%]","remaining at 7 h, 15 µM ([3]; human, pooled human serum, incubation time 420 min, read-out: Mean residual amount) [%]","remaining at 1 h, 15 µM [4] [%]","remaining at 2 h, 15 µM [4] [%]","remaining at 3 h, 15 µM [4] [%]","remaining at 7 h, 15 µM [4] [%]",Relative binding affinity (R1) in comparison with hGHRH(1-29)NH2 in BHK cells expressing the hGHRH receptor ([1]; listed as 1),Relative binding affinity (R1) in comparison with hGHRH(1-29)NH2 in BHK cells expressing the hGHRH receptor ([1]; listed as #1),"Relative binding affinity (R1) in comparison with hGHRH(1-29)NH2 in BHK cells expressing the hGHRH receptor ([1]; D-Tyr^10, Lys^22]human GHRH(1-29)NH2)",Compound
–,100 ± 0 % of initial concentration,75 ± 12,70 ± 15,53 ± 8,30 ± 6,–,–,–,–,–,–,79,63,68,–,499 ± 234,significantly higher binding affinity,–,"CC[C@H](C)[C@H](NC(=O)[C@H](C)NC(=O)[C@H](CC(=O)O)NC(=O)[C@@H](C)NC(=O)[C@@H](N)Cc1ccc(O)cc1)C(=O)N[C@@H](Cc1ccccc1)C(=O)N[C@H](C(=O)N[C@@H](C)C(=O)N[C@@H](CO)C(=O)N[C@@H](Cc1ccc(O)cc1)C(=O)N[C@@H](CCCNC(=N)N)C(=O)N[C@@H](CCCCN)C(=O)N[C@H](C(=O)N[C@@H](CC(C)C)C(=O)N[C@@H](C)C(=O)N[C@@H](CCC(N)=O)C(=O)N[C@@H](CC(C)C)C(=O)N[C@@H](CO)C(=O)N[C@@H](C)C(=O)N[C@@H](CCCNC(=N)N)C(=O)N[C@@H](CCCCN)C(=O)N[C@@H](CCCCN)C(=O)N[C@@H](CC(C)C)C(=O)N[C@@H](CCC(N)=O)C(=O)N[C@@H](CC(=O)O)C(=O)N[C@H](C(=O)N[C@@H](CCSC)C(=O)N[C@@H](CO)C(=O)N[C@@H](CCCNC(=N)N)C(N)=O)[C@@H](C)CC)C(C)C)[C@@H](C)O [GHRH analogue #1, [D-Ala^2, Ala^8, Ala^15, Lys^22] hGHRH(1-29)-NH2] (H-Y[dA]DAIFTASYRKVLAQLSARKKLQDIMSR-NH2; N-terminus assumed)"
–,100 ± 0 % of initial concentration,83 ± 3,73 ± 5,53 ± 3,29 ± 2,–,–,–,–,–,–,–,–,–,–,–,–,–,"YADAIFTAAYRKVLAQLSARKALQDIMSR-NH2 [GHRH analogue #2, [Ala^8, Ala^9, Ala^15, Ala^22] hGHRH(1-29)-NH2]"

# Further lines, the compound ahead of its results:
Compound,Relative binding affinity (R1) in comparison with hGHRH(1-29)NH2 in BHK cells expressing the hGHRH receptor [1],Residual concentration [2],"remaining at 8 min, 15 µM [2] [%]","remaining at 0.25 h, 15 µM [2] [%]","remaining at 0.5 h, 15 µM [2] [%]","remaining at 1 h, 15 µM [2] [%]",Mean residual amount ([3]; incubation time 0 min) [%],Mean residual amount ([3]; incubation time 420 min),"remaining at 1 h, 15 µM ([3]; human, pooled human serum, incubation time 60 min, read-out: Mean residual amount) [%]","remaining at 2 h, 15 µM ([3]; human, pooled human serum, incubation time 120 min, read-out: Mean residual amount) [%]","remaining at 3 h, 15 µM ([3]; human, pooled human serum, incubation time 180 min, read-out: Mean residual amount) [%]","remaining at 7 h, 15 µM ([3]; human, pooled human serum, incubation time 420 min, read-out: Mean residual amount) [%]","remaining at 1 h, 15 µM [4] [%]","remaining at 2 h, 15 µM [4] [%]","remaining at 3 h, 15 µM [4] [%]","remaining at 7 h, 15 µM [4] [%]",Relative binding affinity (R1) in comparison with hGHRH(1-29)NH2 in BHK cells expressing the hGHRH receptor ([1]; listed as 1),Relative binding affinity (R1) in comparison with hGHRH(1-29)NH2 in BHK cells expressing the hGHRH receptor ([1]; listed as #1),"Relative binding affinity (R1) in comparison with hGHRH(1-29)NH2 in BHK cells expressing the hGHRH receptor ([1]; D-Tyr^10, Lys^22]human GHRH(1-29)NH2)"
"CC[C@H](C)[C@H](NC(=O)[C@H](C)NC(=O)[C@H](CC(=O)O)NC(=O)[C@@H](C)NC(=O)[C@@H](N)Cc1ccc(O)cc1)C(=O)N[C@@H](Cc1ccccc1)C(=O)N[C@H](C(=O)N[C@@H](C)C(=O)N[C@@H](CO)C(=O)N[C@H](Cc1ccc(O)cc1)C(=O)N[C@@H](CCCNC(=N)N)C(=O)N[C@@H](CCCCN)C(=O)N[C@H](C(=O)N[C@@H](CC(C)C)C(=O)N[C@@H](C)C(=O)N[C@@H](CCC(N)=O)C(=O)N[C@@H](CC(C)C)C(=O)N[C@@H](CO)C(=O)N[C@@H](C)C(=O)N[C@@H](CCCNC(=N)N)C(=O)N[C@H](CCCCN)C(=O)N[C@@H](CCCCN)C(=O)N[C@@H](CC(C)C)C(=O)N[C@@H](CCC(N)=O)C(=O)N[C@@H](CC(=O)O)C(=O)N[C@H](C(=O)N[C@@H](CCSC)C(=O)N[C@@H](CO)C(=O)N[C@@H](CCCNC(=N)N)C(N)=O)[C@@H](C)CC)C(C)C)[C@@H](C)O [GHRH analogue #4, [D-Ala^2, Ala^8, D-Tyr^10, Ala^15, D-Lys^21, Lys^22] hGHRH(1-29)-NH2] (H-Y[dA]DAIFTAS[dY]RKVLAQLSAR[dK]KLQDIMSR-NH2; N-terminus assumed)",0.05 ± 0.01,100 ± 0 % of initial concentration,98 ± 2,100,99 ± 1,97 ± 3,–,–,–,–,–,–,–,–,–,–,–,–,–
"CC[C@H](C)[C@H](NC(=O)[C@H](C)NC(=O)[C@H](CC(=O)O)NC(=O)[C@H](C)NC(=O)[C@@H](N)Cc1ccc(O)cc1)C(=O)N[C@@H](Cc1ccccc1)C(=O)N[C@H](C(=O)N[C@@H](CC(N)=O)C(=O)N[C@@H](CO)C(=O)N[C@@H](Cc1ccc(O)cc1)C(=O)N[C@@H](CCCNC(=N)N)C(=O)N[C@@H](CCCCN)C(=O)N[C@H](C(=O)N[C@@H](CC(C)C)C(=O)NCC(=O)N[C@@H](CCC(N)=O)C(=O)N[C@@H](CC(C)C)C(=O)N[C@@H](CO)C(=O)N[C@@H](C)C(=O)N[C@@H](CCCNC(=N)N)C(=O)N[C@@H](CCCCN)C(=O)N[C@@H](CC(C)C)C(=O)N[C@@H](CC(C)C)C(=O)N[C@@H](CCC(N)=O)C(=O)N[C@@H](CC(=O)O)C(=O)N[C@H](C(=O)N[C@@H](CCSC)C(=O)N[C@@H](CO)C(=O)N[C@@H](CCCNC(=N)N)C(N)=O)[C@@H](C)CC)C(C)C)[C@@H](C)O [hGHRH(1-29)NH2, reference compound]",–,100 ± 0 % of initial concentration,81 ± 2,66 ± 3,43 ± 2,16 ± 1,100,disappeared totally,57,37,16,0,53,44,23,5,–,–,–
"CC[C@H](C)[C@H](NC(=O)[C@H](C)NC(=O)[C@H](CC(=O)O)NC(=O)[C@@H](C)NC(=O)[C@@H](N)Cc1ccc(O)cc1)C(=O)N[C@@H](Cc1ccccc1)C(=O)N[C@H](C(=O)N[C@@H](CC(N)=O)C(=O)N[C@@H](CO)C(=O)N[C@H](Cc1ccc(O)cc1)C(=O)N[C@@H](CCCNC(=N)N)C(=O)N[C@@H](CCCCN)C(=O)N[C@H](C(=O)N[C@@H](CC(C)C)C(=O)NCC(=O)N[C@@H](CCC(N)=O)C(=O)N[C@@H](CC(C)C)C(=O)N[C@@H](CO)C(=O)N[C@@H](C)C(=O)N[C@@H](CCCNC(=N)N)C(=O)N[C@@H](CCCCN)C(=O)N[C@@H](CCCCN)C(=O)N[C@@H](CC(C)C)C(=O)N[C@@H](CCC(N)=O)C(=O)N[C@@H](CC(=O)O)C(=O)N[C@H](C(=O)N[C@@H](CCSC)C(=O)N[C@@H](CO)C(=O)N[C@@H](CCCNC(=N)N)C(N)=O)[C@@H](C)CC)C(C)C)[C@@H](C)O [GHRH analogue #3, [D-Ala^2, D-Tyr^10, Lys^22] hGHRH(1-29)-NH2] (H-Y[dA]DAIFTNS[dY]RKVLGQLSARKKLQDIMSR-NH2; N-terminus assumed)",–,100 ± 0 % of initial concentration,82 ± 7,88 ± 7,70 ± 12,36 ± 4,–,–,–,–,–,–,87,78,81,–,–,–,239 ± 55
